# Source: ChEMBL document CHEMBL1144500, “Design and synthesis of Rho kinase inhibitors (II)” (Bioorg Med Chem, 2007)
# Test system: not listed separately
# Experiment: Solubility in water
# Type: physicochemical
row,SMILES,solubility
1,c1ccc(CN2CCC(Nc3ccc4[nH]ncc4c3)CC2)cc1,794 µg/mL
2,O=C(NCc1c(F)cccc1F)Nc1ccc2[nH]ncc2c1,5 µg/mL

# Test system: not listed separately
# Experiment: Solubility in 0.086N HCl containing 34 mM NaCl
# Type: physicochemical
row,SMILES,solubility
1,c1ccc(CN2CCC(Nc3ccc4[nH]ncc4c3)CC2)cc1,881 µg/mL
2,O=C(NCc1c(F)cccc1F)Nc1ccc2[nH]ncc2c1,5 µg/mL

# Target: Rho-associated protein kinase (Homo sapiens, UniProt O75116+Q13464)
row,SMILES,IC50
1,CCCN1CCCC(Nc2ccc3[nH]ncc3c2)C1 (stereo not drawn),780 nM
2,O=C(NC1CCN(Cc2ccccc2)CC1)c1ccc2[nH]ncc2c1,540 nM
3,c1ccc(CN[C@H]2CC[C@H](Nc3ccc4[nH]ncc4c3)CC2)cc1,520 nM
4,CN(CCNc1ccc2[nH]ncc2c1)Cc1ccccc1,7900 nM
5,Fc1ccc(CN2CCC(CNc3ccc4[nH]ncc4c3)CC2)cc1,> 10000 nM
6,Cn1ncc2cc(NC3CCCN(Cc4ccccc4)C3)ccc21 (stereo not drawn),> 10000 nM
7,c1c[nH]c(CN2CCCC(Nc3ccc4[nH]ncc4c3)C2)c1 (stereo not drawn),11 nM
8,c1cc(CN2CCCC(Nc3ccc4[nH]ncc4c3)C2)c[nH]1 (stereo not drawn),> 1000 nM
9,Fc1ccc(CN2CCCC(Nc3ccc4[nH]ncc4c3)C2)cc1 (stereo not drawn),25 nM
10,Fc1ccc(CN2CCCC(Nc3ccc4[nH]ncc4c3)C2)cc1F (stereo not drawn),10 nM
11,Nc1ccc(CN2CCCC(Nc3ccc4[nH]ncc4c3)C2)cc1 (stereo not drawn),10 nM
12,Clc1ccccc1CN1CCC(Nc2ccc3[nH]ncc3c2)CC1,440 nM
13,Clc1cccc(CN2CCC(Nc3ccc4[nH]ncc4c3)CC2)c1,290 nM
14,c1ccc(CN2CCCC(Nc3ccc4[nH]ncc4c3)C2)nc1 (stereo not drawn),240 nM
15,c1cncc(CN2CCCC(Nc3ccc4[nH]ncc4c3)C2)c1 (stereo not drawn),72 nM
16,c1ccc(CN2CCCC(Nc3ccc4[nH]ncc4c3)C2)cc1 (stereo not drawn),20 nM
17,O=C(NCc1ccc(Cl)cc1Cl)Nc1ccc2[nH]ncc2c1,220 nM
18,c1coc(CN2CCCC(Nc3ccc4[nH]ncc4c3)C2)c1 (stereo not drawn),65 nM
19,c1cc(CN2CCCC(Nc3ccc4[nH]ncc4c3)C2)co1 (stereo not drawn),180 nM
20,O=C(NCc1c(Cl)cccc1Cl)Nc1ccc2[nH]ncc2c1,20 nM
21,Clc1ccc(CN2CCC(Nc3ccc4[nH]ncc4c3)CC2)cc1,290 nM

row,SMILES,IC50
1,O=C(Nc1ccc2[nH]ncc2c1)NC1CCN(Cc2ccccc2)CC1,> 10000 nM
2,O=C(NCc1ccccc1)Nc1ccc2[nH]ncc2c1,260 nM
3,c1ccc(CN2CCC(Oc3ccc4[nH]ncc4c3)CC2)cc1,100 nM
4,O=C(NCc1c(F)cccc1F)Nc1ccc2[nH]ncc2c1,85 nM
5,c1ccc(CN2CCCC(Oc3ccc4[nH]ncc4c3)C2)cc1 (stereo not drawn),10 nM
6,COc1ccc(CN2CCCC(Nc3ccc4[nH]ncc4c3)C2)cc1 (stereo not drawn),16 nM
7,Cc1n[nH]c2ccc(NC3CCCN(Cc4ccccc4)C3)cc12 (stereo not drawn),150 nM
8,c1ccc(CN2CCC(Nc3ccc4[nH]ncc4c3)C2)cc1 (stereo not drawn),32 nM
9,Cc1ccc(CN2CCCC(Nc3ccc4[nH]ncc4c3)C2)cc1 (stereo not drawn),9 nM
10,Clc1ccccc1CN1CCC(Nc2ccc3[nH]ncc3c2)C1 (stereo not drawn),45 nM
11,Clc1cccc(CN2CCCC(Nc3ccc4[nH]ncc4c3)C2)c1 (stereo not drawn),19 nM
12,COc1cc(CN2CCCC(Nc3ccc4[nH]ncc4c3)C2)cc(OC)c1 (stereo not drawn),80 nM
13,O=[N+]([O-])c1ccc(CN2CCCC(Nc3ccc4[nH]ncc4c3)C2)cc1 (stereo not drawn),87 nM
14,c1ccc(CN[C@H]2CC[C@@H](Nc3ccc4[nH]ncc4c3)CC2)cc1,320 nM
15,Nc1cccc(CN2CCCC(Nc3ccc4[nH]ncc4c3)C2)c1 (stereo not drawn),35 nM
16,Clc1ccccc1CN1CCCC(Nc2ccc3[nH]ncc3c2)C1 (stereo not drawn),13 nM
17,O=C(Nc1ccc2[nH]ncc2c1)C1CCCN(Cc2ccccc2)C1 (stereo not drawn),18 nM
18,Clc1ccc(CN2CCCC(Nc3ccc4[nH]ncc4c3)C2)cc1 (stereo not drawn),11 nM
19,O=C(Nc1ccc2[nH]ncc2c1)C1CCN(Cc2ccccc2)CC1,136 nM
20,CC(C)CCN1CCCC(Nc2ccc3[nH]ncc3c2)C1 (stereo not drawn),340 nM
21,Nc1ccccc1CN1CCCC(Nc2ccc3[nH]ncc3c2)C1 (stereo not drawn),85 nM

# Test system: not listed separately
# Experiment: Solubility in 50 mM KH2PO4 containing 24 mM NaOH
# Type: physicochemical
row,SMILES,solubility
1,c1ccc(CN2CCC(Nc3ccc4[nH]ncc4c3)CC2)cc1,495 µg/mL
2,O=C(NCc1c(F)cccc1F)Nc1ccc2[nH]ncc2c1,< 1 µg/mL
